Experimental data: BindingDB's records for doi:10.7270/Q2891498 (Nmmlsc, 2009)

Biological target: T1, GTPase KRas [1-37] (Homo sapiens, UniProt G3V5T7)
T1 construct: 1-37
Assay: wildtype Ras GTP binding inhibitors, SAR follow-up, biochemical, additional analogs, multiplex flow cytometry, Ki (AID 2038)

T1 sequence (G3V5T7 whole entry): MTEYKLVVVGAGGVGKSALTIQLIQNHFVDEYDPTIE

## O=C1N=c2c(Br)cccc2=C1c1[nH]c2ccccc2c1NO [7-bromanyl-3-[3-(oxidanylamino)-1H-indol-2-yl]indol-2-one]
  Ki: 5.85 µM
